# Entries after “also recorded” stand apart in the source; their conditions may differ. Read-outs that look alike come from different tables or passages of the source.
# Assays:
# [1] = test system: PrP^Sc accumulation in brain (RML scrapie); format: in vivo, C57BL/6 mice; conditions: brain at 120 dpi
# α-synuclein = α-synuclein (Homo sapiens, UniProt P37840); experiment: Inhibition of the formation of α-synuclein aggregates (intermediate II oligomers), confocal single molecule spectroscopy (Example 16); format: biochemical
# RML scrapie [2] = format: in vivo, C57Bl6 mice; conditions: i.c. RML scrapie
# [3] = test system: PrPSc in spleen (RML scrapie); format: in vivo, C57Bl6 mice; conditions: i.p. RML scrapie; 25 μL 100 mM i.p. 14 days then 50 mg/kg oral; day 35 post infection
# [4] = test system: PrP^Sc accumulation in spleen (RML scrapie); format: in vivo, C57BL/6 mice; conditions: i.p. infection; 34 days of 1 mg compound per day in DMSO+peanut butter; spleen at 35 dpi
# RML scrapie [5] = format: in vivo, C57BL/6 mice
# RML scrapie [6] = format: in vivo, C57BL/6 mice; conditions: different times and schedules of treatment; p<0.01
# [7] = test system: PrPSc in brain (RML scrapie)
# [8] = Pharmacokinetic analysis of anle138b, compound in brain and serum by LC-MS (Example 15); conditions: single dose, non-infected mice
# [9] = 5 mg per day orally in DMSO+peanut butter from 80 or 120 dpi
# [10] = i.c. RML scrapie, treatment from day 80
smiles,measurement,setting,value
FCCn1nc(-c2ccc3c(c2)OCO3)cc1-c1cccc(Br)c1 [sery363a],reduction of PrPC accumulation compared to DMSO-treated controls,[1]; 3 mg compound per day orally in DMSO+peanut butter from 80 dpi,35%
Nc1ccc(-c2cc(-c3cccc(Cl)c3)n[nH]2)cc1 [sery383],reduction of PrPC accumulation compared to DMSO-treated controls,[1]; 1 mg compound per day orally in DMSO+peanut butter from 80 dpi,30%
same,inhibition of alpha-synuclein aggregation,α-synuclein,highly active
same,Intermediate II (formation of intermediate II oligomers in comparison to controls without compound),"α-synuclein; compound 10 μM, aggregation induced by DMSO and 10 μM FeCl3",<5%
"Brc1cccc(-c2cc(-c3ccc4c(c3)OCO4)n[nH]2)c1 [anle138b, 3-(1,3-Benzodioxol-5-yl)-5-(3-bromophenyl)-1H-pyrazole]",effect of treatment on survival time,RML scrapie [2]; daily i.p. for 14 days from day 80 post infection,significantly prolongs the survival times
same,"average survival time prolonged by, in comparison to DMSO vehicle group",RML scrapie [2]; i.p. 25 μL per day of 100 mM compound for 14 days from day 80 post infection,14.9 days
same,PrPSc deposits in spleen tissue (immunohistology),[3],reduced
same,splenic PrPSc level (immunoblot / dot blot) compared to vehicle-treated mice,[3],strong reduction in PrPSc levels; also recorded: decreases significantly
same,"Inhibition [%] of PrPSc accumulation in brain, protocol a","[1]; 1 mg compound per day orally in DMSO+peanut butter from 80 dpi, relative to DMSO-treated (0%) and start of treatment (100%)",69%
same,"PrPSc accumulation in brain, dose dependence",[1]; different amounts orally in DMSO+peanut butter from 80 dpi,reduced PrP^Sc accumulation in brain in a dose-dependent manner
same,"Inhibition [%] of PrPSc accumulation in spleen, protocol c",[4],62%
same,"PrPSc accumulation in brain (stained sections, brain homogenates)",RML scrapie [5]; [9],strongly reduced
same,apoptotic cells in the cerebellum (neuronal cell death),RML scrapie [5]; [9],inhibition of neuronal cell death
same,time for which weight loss is prevented,"RML scrapie [5]; 5 mg per day orally, treatment from 80 dpi onwards",~100 days
same,time for which weight loss is inhibited,"RML scrapie [5]; 5 mg per day orally, treatment from 120 dpi",~70 days
same,survival times after challenge with RML scrapie,RML scrapie [6],significantly prolonged the survival times
same,"Inhibition [%] of PrPSc accumulation in brain, protocol b","[7]; 0.84 mg per day i.p. 14 days from 80 dpi then 2x5 days 1 mg by gavage, brain at 106 dpi, relative to DMSO-treated (0%) and start of treatment (100%)",108%
same,change of relative PrPSc levels in brain compared to untreated control at day 80,[7]; [10],slighty decreased
same,pathological changes / apoptotic cells in cerebellar granule cell layer (H&E stained brain slices),[7]; [10],reduction of pathological changes
same,survival time until terminal stage of scrapie infection,"[7]; i.c. RML scrapie, treatment from day 80, two anle138b mice additionally fed compound in peanut butter day 109 to 136",longer survival times
same,brain penetration,[8],good brain penetration
same,oral bioavailability,[8],good oral bioavailability

# — patent US10071966B2, “Drug for inhibiting aggregation of proteins involved in diseases linked to protein aggregation and/or neurodegenerative diseases” (Ludwig-Maximilians-Universität München, priority 2008, dated 2018)
